Experimental data published in patent publication US6750028B1, “Anti-fibrotic agent assay” (Ethicon, Inc, priority 1996, dated 2004).
Blank lines part the entries; values can stand above or below the compound they belong to.

Key:
[1] = tested on: M6P/IGF-II receptor mRNA; test: M6P/IGF-II receptor mRNA in human neonatal fibroblasts by RT-PCR; assay type: cell-based
Method: (§1) Human neonatal fibroblasts were seeded in 100 mm dishes at 1×10^6 cells/dish. […] In addition, cells were treated with two concentrations of Mannose 1-Phosphate (M1P) (100 and 200 μM) for 24 and 48 h. […] Each treatment was run in duplicates and repetitive analyses were performed.
(§2) The procedure used to transcribe the total RNA was described in detail previously (28). Briefly, the reaction was carried out in a total volume of 25 μl containing 1× reverse transcriptase buffer (50 mM Tris-HCl, pH 8.3, 75 mM KCl, 3 mM MgCl2), 10 mM DTT (Dithiothreitol), 2.5 mM each of dNTPs (Deoxynucleotides), 100 μg/ml of acetylated BSA, 4 units of rRNasin (ribonuclease inhibitor), 200 units of SuperScript™ RNase H^−Reverse Transcriptase, 0.1 μg of oligo (dT)12-18 and 1 μg of total RNA. Incubation was carried out for 1 h at 42° C. and was terminated by the addition of an equal volume of cold water.
(§3) A portion of the first strand cDNA reaction was used in PCR, which was carried out in 25 μl containing 16 mM Tris-HCl, pH 8.3, 50 mM KCl, 1.5 mM MgCl2, 0.01% gelatin, 200 μM of each dNTPs, 1 μM each sense and antisense oligonucleotides and 2.5 units of AmpliTaq DNA polymerase. Amplification was carried out for 35 cycles. Each cycle consisted of: denaturation 1 min at 95° C.; annealing at 55° C. (optimal for the pair of oligonucleotides used) for 2 min; and elongation at 72° C., 3 min. For the final cycle elongation was 7 min. Reaction products were separated by 2% agarose gel electrophoresis and were visualized by ethidium bromide staining. Sizes were determined using Q X 174 DNA/Hae III markers. Restriction digests were performed in order to confirm PCR product specificity. Densitometry was used for quantitative analysis of the ethidium bromide stained gels.

[2] = tested on: TGF-β receptor type I mRNA; test: TGF-β receptor type I mRNA in human neonatal fibroblasts by RT-PCR; assay type: cell-based; settings: M6P, time course of treatment (24 and 48 h)
Method: as §1, §2
A portion of the first strand cDNA reaction was used in PCR, which was carried out in 25 μl containing 16 mM Tris-HCl, pH 8.3, 50 mM KCl, 1.5 mM MgCl2, 0.01% gelatin, 200 μM of each dNTPs, 1 μM each sense and antisense oligonucleotides and 2.5 units of AmpliTaq DNA polymerase. Amplification was carried out for 35 cycles. […] Sizes were determined using Q X 174 DNA/Hae III markers. […] Densitometry was used for quantitative analysis of the ethidium bromide stained gels.

[3] = tested on: M6P/IGF-II receptors; test: M6P/IGF-II receptor levels within wounds treated with M6P; assay type: in vivo; settings: 3 days post-wounding
[4] = tested on: TGF-β1 activation; test: Co-culture of BAEC and BASMC, TGF-β1 in conditioned media by ELISA; assay type: cell-based, bovine
Method: For co-culture experiments, BAECs and BASMCs were seeded separately in 35 mm dishes at a density of 40×10^4 cells in DMEM/10% CS (Calf Serum) or 3.2×10^5 BAECs and 0.8×10^5 BASMCs in the same 35-mm dishes. After cell attachment (approximately 2 h) the cells were rinsed with PBS and incubated in 1 ml of DMEM/0.1% BSA for 6 h to produce conditioned media. Conditioned Media were centrifuged and used in the ELISA assay.
(§4) Each measurement was performed in duplicates.
Preliminary experiments were carried out with the aim to adopt the published co-culture system for screening anti-fibrotic agents.

[5] = tested on: TGF-β1 activation; test: TGF-β1 activation by prostate adenocarcinoma cells (ELISA); assay type: cell-based, human; settings: for % ACTIVE TGF-β1 (STD): Adenocarcinoma cells, M6P 100 μM, cystamine 100 μM, antibody 1:1500 dil
Method: as §4
(§5) It has been shown that cancer cells, such as human breast cancer, some melanoma cell lines and prostate adenocarcinoma cell lines, constitutively release biologically active TGF-β1 into the culture medium (24, 25, 29). Since the homotypic cell culture system would be of advantage due to its simplicity, an attempt was made to implement cancer cells as a method for TGF-β1 activation.

[6] = tested on: TGF-β1 activation; test: TGF-β1 activation by HMB-2 melanoma cells (ELISA); assay type: cell-based, human
Method: as §4, §5

[7] = tested on: TGF-β1 activation; test: TGF-β1 activation by Bowes melanoma cells (ELISA); assay type: cell-based, human
Method: as §4, §5

[8] = tested on: TGF-β1 mRNA; test: mRNA for TGF-β1 in macrophages by Northern blot; assay type: cell-based, mouse; settings: LPS alone or LPS with M6P or DCA, FIG. 2
Method: The cells were washed with PBS, followed by addition of the extraction buffer provided with the kit (RNeasy RNA extraction kit). The lysed cells were scraped from the dish and collected in microtubes. Samples were either frozen at −70° C. before analysis or directly assessed following manufacturer protocol. Absorbance at 260 nm and 280 nm was measured and the integrity of RNA was evaluated by denaturing formaldehyde agarose gels stained with ethidium bromide.
Northern blot analysis was carried out as described previously (27). Briefly, total RNA samples (5 μg) were diluted in formaldehyde-MOPS buffer and subjected to electrophoresis in a denaturing 1.2% Sea Kem GTG agarose gel along with the RNA size markers. RNA was transferred to a nitrocellulose membrane by capillary transfer. The blots were prehybridized for 3 h at 42° C. in a solution containing 10% dextran sulfate, 2×Denhardt's solution, 50% formamide, 5×SSPE (0.75 M Sodium chloride, 0.05 M sodium phosphate, 0.005 M ethylenediaminetetraacetic acid)/0.1% SDS, and 250 μg/ml of sheared salmon testis DNA. Hybridization solution was essentially the same except that ^32P dCTP-labeled DNA probe and 150 μg/ml of salmon testis DNA were included. The hybridization was carried out for 16 h at 42° C. […]

[9] = tested on: TGF-β1 mRNA; test: TGF-β1 mRNA in human neonatal fibroblasts by RT-PCR; assay type: cell-based
Method: as §1, §2, §3

[10] = tested on: TGF-β1 activation; test: BAEC treated with retinoic acid, TGF-β1 in conditioned media by ELISA; assay type: cell-based, bovine
Method: The procedures for preparation of conditioned media were described previously (22). Briefly, for the retinoid experiment, BAEC cells were grown to confluency in 35 mm dishes. The cultures were rinsed with PBS (Phosphate Buffered Saline), and incubated in 1 ml of serum-free DMEM containing 0.1% of BSA and retinoic acid (10 μM) or vehicle (0.5% ethanol). The incubation was carried out for 24 h. The medium was aspirated, the cells were washed with PBS and then incubated in 1 ml of DMEM/0.1% BSA for an additional 12 h to produce conditioned medium. Conditioned media were centrifuged and used in the ELISA assay for TGF-β1 evaluation.
Each measurement was performed in duplicates. […]

[11] = tested on: TGF-β1 activation; test: Macrophage activation assay (IC-21 macrophages, LPS, fetal fibroblast conditioned media, ELISA); assay type: cell-based, mouse
Method: (§6) Cultured macrophages were lifted from the dish with 3 ml of PBS. The PBS was balanced with 15 ml of RPMI-1640 containing 10% FBS. The cells were counted and then seeded in 100 mm plates at 1×10^6 cells/dish. When the cultured macrophages reached approximately 70% confluency (2-3 days) they were washed with PBS and RPMI-1640 medium containing 5% FBS and 10 ng/ml LPS was applied (FIG. 1). After 24 h of activation with LPS the cells were washed gently with PBS. At this point conditioned medium from confluent fetal dermal fibroblasts was collected and 5 ml was distributed into each dish containing macrophages. The cells were incubated for an additional 24 h, the media were collected, spun down at 600×g for 10 min and stored at 4° C. before TGF-β1 evaluation by ELISA. Each condition was done in duplicate. The cells, washed with PBS, were harvested for total RNA extraction.
Fetal dermal fibroblasts were seeded in 100 mm dishes at 1×10^6 cell/dish. The cells were grown to confluency (2-3 days). The cultures were washed with PBS and fresh medium, either DMEM supplemented with 10% FBS or AIM-V medium (a serum free medium) for serum-free conditions, was applied for 24 h (FIG. 1). The medium was collected and combined in order to obtain a homogenous pool of latent TGF-β1. The collection of the medium was done just prior to application in the macrophage assay.
as §4

[12] = tested on: TGF-β1 activation; test: Activation of rHLTGF-β1 by macrophages; assay type: cell-based, mouse; settings: 200 pg/ml rHLTGF-β1
Method: as §6, §4
The substitution in the media with purified recombinant latent form of TGF-β1 was tested in an attempt to determine the requirement for fibroblast conditioned media in the macrophage assay. Only 3.3% of rHLTGF-β1 was activated by macrophages when the treatment with LPS was omitted (Table 5).

[13] = BAEC + RA (10 μM) + test agent 100 μM

expression of mRNA for M6P/IGF-II receptor, in words ([1]; 1-100 μM, 24 h): not affected | expression of mRNA for M6P/IGF-II receptor, in words ([1]; 50-200 μM, 48 h): decrease | level of TGF-β receptor type I mRNA, in words [2]: unchanged
Compound: O=C[C@@H](O)[C@@H](O)[C@H](O)[C@H](O)COP(=O)(O)O [M6P, D-mannose 6-phosphate]
levels of the M6P/IGF-II receptors within the wounds, in words [3]: downregulated | inhibition of TGF-β1 activation, in words ([4]; 100 μM): did not significantly inhibit | % Active ([4]; Co-culture + M6P 100 μM): 7.5% | Active TGF-β1 ([4]; Co-culture + M6P 100 μM): 58 pg/mL | Total TGF-β1 ([4]; Co-culture + M6P 100 μM): 770 pg/mL | % ACTIVE TGF-β1 (STD) [5]: 91.8% | effect on TGF-β1 activation, in words ([5]; prostate cancer cells): no effect | % ACTIVE TGF-β1 (STD) ([6]; HMB-2, M6P 100 μM, DCA 100 μM, antibody 1:1500 dil): 108.4% | effect on TGF-β1 activation, in words ([6]; melanoma cells (HMB-2)): no effect | % ACTIVE TGF-β1 (STD) ([7]; BOWES, M6P 100 μM, DCA 100 μM, antibody 1:1500 dil): 113.5% | effect on TGF-β1 activation, in words ([7]; melanoma cells (Bowes)): no effect | levels of mRNA for TGF-β1, in words [8]: remained the same | expression of TGF-β1 cDNA (RT-PCR) ([9]; M6P 1 μM, 24 h): 80.9 | expression of TGF-β1 cDNA (RT-PCR) ([9]; M6P 1 μM, 48 h): 86.3 | expression of TGF-β1 cDNA (RT-PCR) ([9]; M6P 10 μM, 24 h): 116.2 | expression of TGF-β1 cDNA (RT-PCR) ([9]; M6P 10 μM, 48 h): 78.8 | expression of TGF-β1 cDNA (RT-PCR) ([9]; M6P 50 μM, 24 h): 119.3 | expression of TGF-β1 cDNA (RT-PCR) ([9]; M6P 50 μM, 48 h): 75 | expression of TGF-β1 cDNA (RT-PCR) ([9]; M6P 100 μM, 24 h): 95.6 | expression of TGF-β1 cDNA (RT-PCR) ([9]; M6P 200 μM, 24 h): 62.5 | expression of TGF-β1 cDNA (RT-PCR) ([9]; M6P 200 μM, 48 h): 28.8 | inhibitory effect on TGF-β1 activation, in words ([10]; 100 μM, BAEC treated with RA): no significant inhibitory effects | % Active [10, 13]: 8.1% | Active TGF-β1 [10, 13]: 287 pg/mL | Total TGF-β1 [10, 13]: 3544 pg/mL

Compound: IGF-II: Recombinant human IGF-II
effect on TGF-β1 activation, in words [11]: inhibited TGF-β1 activation | active TGF-β1, % Control (STD) ([11]; IGF-II 15 nM): 65.1% | active TGF-β1, % Control (STD) ([11]; IGF-II 30 nM): 54.3% | effect on TGF-β1 activation, in words ([11]; IGF-II 15 and 30 nM): dose-dependent inhibitory effect

Compound: Cl.Cl.NCCCCN [Putrescine, putrescine-dihydrochloride]
active TGF-β1, % Control (STD) ([11]; 100 μM): 80.6%

Compound: rHLTGF-β1: Recombinant human latent TGF-β1
% Active ([12]; LPS): 12.2% | Active TGF-β1 ([12]; LPS): 48.8 (3.5) pg/ml | Total TGF-β1 ([12]; LPS): 399 (44.5) pg/ml | % Active ([12]; No LPS): 3.3% | Active TGF-β1 ([12]; No LPS): 10.9 (7.2) pg/ml | Total TGF-β1 ([12]; No LPS): 324 (7.2) pg/ml

Compound: NCCSSCCN [Cystamine, cystamine]
active TGF-β1, % Control (STD) ([11]; 50 μM M6P + 100 μM putrescine or cystamine): did not show additive effect | % ACTIVE TGF-β1 (STD) [5]: 91.1%
